Data published in EP0063075A1, “(2,6-Dimethoxy-4-hydroxyphenyl)-(3-piperidinopropyl) ketone and its salts, its use in therapeutic preparations and process for its production” (LABORATOIRE L. LAFON Société anonyme dite:, priority 1981, dated 1982).

Legend:
[1] = test system: chien mâle anesthésié au nembutal; test: Peripheral vasodilator properties, intravenous administration in the anaesthetised dog; type: in vivo
Procedure: (§1) Les propriétés vasodilatatrices périphériques ont été étudiées chez le chien mâle anesthésié au nembutal (6 animaux par dose et par produit). Les produits à comparer sont administrés en solution dans du sérum physiologique sous un volume de 6 ml/animal par voie intraveineuse (perfusion de 1 ml/min) et sous un volume de 10 ml/animal par voie intraduodénale. Par rapport aux témoins (les mêmes animaux ne recevant que le sérum physiologique), on mesure trois paramètres : la pression artérielle moyenne (exprimée en mm Hg; mm Hg correspond à 1,333224 x 10^2 Pa), la fréquence cardiaque (exprimée en battements/minute) et le débit artériel fémoral (exprimé en ml/min). Les variations de ces paramètres exprimées en pourcentages, par rapport aux témoins, sont données dans les tableaux II (administration intraveineuse) et III (administration intraduodénale) ci-après.
(§2) La vasodilatation périphérique se traduit dans ces circonstances par une augmentation du débit artériel fémoral. On dit, selon les présentes conditions opératoires, qu'un produit est un agent vasodilatateur périphérique si le débit artériel fémoral augmente d'au moins 30% par administration intraveineuse, d'une part, et par administration intraduodénale, d'autre part, sans que la variation de la pression artérielle soit supérieure à +10% ou inférieure à -10%.

[2] = test system: chien mâle anesthésié au nembutal; test: Peripheral vasodilator properties, intraduodenal administration in the anaesthetised dog; type: in vivo; settings: for effet sur la pression artérielle par voie I.D. / effet vasodilatateur par voie I.D.: result in words
Procedure: as §1, §2

escarres = test: Clinical use in the treatment of bedsores; type: in vivo, homme; settings: in man
[3] = Solubility in water (description of the isolated product); type: physicochemical; settings: result in words
[4] = result in words, compared with LL 1656; cited from earlier work
[5] = as indicated in British patent n° 1.325.192; cited from earlier work

COc1cc(O)cc(OC)c1C(=O)CCCN1CCCCC1 [Exemple 1, chlorhydratede (2,6-diméthoxy-4-hydroxyphényl)-(3-pipéridinopropyl)-cétone]
activité en tant que vasodilatateur périphérique (comparaison) ([1]; text conclusion from tables II and III (i.v. and i.d.)): aussi actif que le produit de référence CP7
variation du débit artériel fémoral par voie I.V. ([1]; text summary over all i.v. doses (toujours)): > +30%
variation du débit artériel fémoral par voie I.D. ([2]; intraduodenal route): > +30%
résultats dans le traitement des escarres (escarres): bons résultats
solubilité dans l'eau [3]: soluble dans l'eau

COc1cc(O)c(C(=O)CCCN2CCCCC2)c(OC)c1 [CP1, chlorhydratede (2,4-diméthoxy-6-hydroxyphényl)-(3-pipé-ridinopropyl)-cétone]
effet vasodilatateur par voie I.V. ([1]; result in words, i.v. route): très faiblement vasodilatateur
diminution de la pression artérielle par voie I.D. ([2]; intraduodenal route): > 10%
effet sur la pression artérielle par voie I.D. ([2]; intraduodenal route): effet hypotenseur
effet vasodilatateur par voie I.D. ([2]; intraduodenal route): n'a guère d'effet vasodilatateur
solubilité dans l'eau [3]: très soluble dans l'eau

O=C(CCCN1CCCC1)c1c(O)cc(O)cc1O [(2,4,6-trihydroxyphényl)-(3-pyrrolidinopropyl)-cétone]
propriétés vasodilatatrices périphériques [4]: aussi intéressants que le LL 1656

COc1cc(O)cc(OC)c1C(=O)CCCN1CCCC1 [(2,6-diméthoxy-4-hydroxy-phényl)-(3-pyrrolidinopropyl)-cétone]
propriétés vasodilatatrices périphériques [4]: dépourvus d'effets vasodilatateurs périphériques

O=C(CCCN1CCCCC1)c1c(O)cc(O)cc1O [CP2, chlorhydratede (2,4,6-trihydroxyphényl)-(3-pipéridinopropyl)-cétone]
variation du débit artériel fémoral par voie I.D. ([2]; intraduodenal route): +17%
effet sur la pression artérielle par voie I.D. ([2]; intraduodenal route): effet hypotenseur
effet vasodilatateur par voie I.D. ([2]; intraduodenal route): pratiquement dépourvu d'effet vasodilatateur
dose à partir de laquelle le produit est vasodilatateur par voie I.V. [5]: ≥ 5 mg/kg

COc1ccc(C(=O)CN2CCCCC2)c(OC)c1 [CP5, (2,4-dimé-thoxyphényl)-(pipéridinométhyl)-cétone]
change in vivo at 20 mg/kg ([2]; Canis lupus familiaris, intraduodenal, dose 20 mg/kg, versus controls, read-out: Variations en % Pression artérielle): 0%

COc1cc(O)c(C(=O)CCCN2CCCC2)c(OC)c1 [(2,4-diméthoxy-6-hydroxyphényl)-(3-pyrrolidinopropyl)-cétone]
propriétés vasodilatatrices périphériques [4]: aussi intéressants que le LL 1656

(2,6-dihydroxy-4-méthoxyphényl)- ou (2,4-dihydroxy-6-méthoxyphényl)-(3-pyrrolidinopropyl)-cétone
propriétés vasodilatatrices périphériques [4]: dépourvus d'effets vasodilatateurs périphériques

COc1cc(OC)c(C(=O)CCCN2CCCC2)c(OC)c1 [CP7, chlorhydratede (2,4,6-triméthoxyphényl)-(3-pyrrolidinopropyl)-cétone]
change in vivo at 6 mg/kg ([1]; Canis lupus familiaris, intravenous, dose 6 mg/kg, versus controls, read-out: Variations en % Fréquence cardiaque): 0%
change in vivo at 1.5 mg/kg ([1]; Canis lupus familiaris, intravenous, dose 1,5 mg/kg, versus controls, read-out: Variations en % Pression artérielle): 0%
